Measured values taken from patent US20260234217A1, “USE OF BMP RECEPTOR ALK1 INHIBITORS IN OSTEOARTHRITIS THERAPIES” (The Regents of the University of California, priority 2023, published 2026).
“Also recorded” adds a separate entry of the source.

What was measured:
Assay type in all cases: in vivo, mouse
subchondral bone plate = assay: Subchondral bone plate analysis in DMM mice; conditions: after DMM surgery
Source text: Dissected knee joints underwent Micro-CT analysis using the Skyscan 1172 in vivo μCT scanner (Bruker micro-CT, Kontich, Belgium) at 55 kV and 181 μA, with a resolution of 10 μm. The raw data was then translated into two-dimensional cross-sectional gray scale image slices using NRecon (Bruker microCT, Kontich, Belgium). Structural parameters were then acquired from the two-dimensional images using a CT Analyzer (CT-AN, v1.10.9.0, Bruker microCT, Kontich, Belgium), including bone volume fraction (BV, mm3). The total knee osteophyte volume from the end of the distal femur to the end of the proximal tibia was compared between knees that underwent sham surgery, DMM surgery treated with PBS, DMM surgery treated with BMP-KI, or DMM surgery treated with ALK1-Fc. Average osteophyte volume was analyzed with Prism 9 Software (GraphPad) using two-way ANOVA and Tukey's multiple comparisons test post-hoc. MicroCT and data analysis was performed by an experienced investigator blinded to genotype/treatment. For each experimental group, five joint sections per animal were analyzed from the medial compartment. […] All quantifications were conducted in Fiji is Just ImageJ (FIJI, version 2.9.0). Quantified subchondral bone thickness was analyzed with Prism 9 Software (GraphPad) using two-way ANOVA and Tukey's multiple comparisons test post-hoc.

[1] = system: OA associated pain in DMM mice; assay: Von Frey pain assessment (50% paw withdrawal threshold) in DMM mice
Description: In a functional assessment of BMP-KI and ALK1-Fc, we measured pain and sensitivity in mice following DMM surgery and treatment with BMP-KI and ALK1-Fc using Von Frey analysis. Mice underwent DMM surgery at 3 months of age and were treated with BMP-KI or ALK1Fc once a week for 8 weeks following surgery. Mice underwent Von Frey testing immediately prior to surgery, and each week following surgery. Von Frey testing involved exposure of the injured limb hindfoot plantar surface to a monofilament of a designated caliber (measured in grams). […] The 50% PWT was then calculated mathematically as previously described(54). A higher 50% paw withdrawal threshold indicates less sensitivity in the surgically treated limb. Mice undergoing sham surgery were also tested as a control.
Pain was assessed using the 50% paw withdrawal threshold (PWT) using Von Frey filaments and the up-and-down method as described(86, 87). Each mouse was tested three times by evaluators blinded to treatment group, and the average value was calculated. Whether or not each of the three acquired values is normal is based on the Jarque-Baera test. 4-5 mice were analyzed per treatment condition. Significance was assessed using two-way ANOVA and Tuckey's multiple comparisons test.

Collagen-X (COL10) = assay: Immunohistochemistry of articular cartilage in DMM mice
Description: (§1) Mice (C57BL/6J) were purchased from The Jackson Laboratory. All mice were housed on a 12-hour light/dark cycle with unrestricted access to standard mouse food and water. The DMM model of injury induced OA was performed on mice at 12 weeks of age by opening the joint capsule and transecting the medial meniscotibial ligament in the right knee, destabilizing the medial meniscus(48). A sham operation was performed on the left knee of each mouse by observing the medial meniscotibial ligament but not transecting it. Mice were administered carprofen 5 mg/kg (Zoetis; 1041283) subcutaneously 30 minutes prior to surgery, immediately post-surgery, and 24 hours post-surgery to minimize pain.
(§2) Treatments were initiated either 1 day after DMM surgery once a week for 8 weeks, or 1 month after DMM surgery twice a week for 4 weeks. Mice were sacrificed at 20 weeks of age (2 months after surgery). To understand the level of articular cartilage damage 1 month after DMM surgery, a cohort of mice was sacrificed at 16 weeks old (FIG. 4).
(§3) Seven micrometer-thick representative sections were chosen for immunohistochemistry, using a standard protocol (35). Tissue sections were deparaffinized, rehydrated, and washed in sodium borohydride (Sigma-Aldrich; 480886). Sections were then incubated with hyaluronidase (Sigma-Aldrich; H3505) and blocked with 5% serum in 1% PBST. Tissue sections were treated with primary antibodies to mouse ALK1 (R&D; AF770), Phospho-SMAD1/5 (Cell Signaling Technology; 9516), Phospho-SMAD2 (Cell Signaling Technology; 3108), MMP13 (Abcam; ab260040), and COL10 (Abcam; […]) and incubated overnight. Sections were then treated with a dilution of secondary antibody goat anti-rabbit IgG (H+L) Cross-Adsorbed Secondary Antibody, Alexa Flour 488 (Invitrogen; A-11008) or donkey anti-goat IgG (H+L) Cross-Adsorbed Secondary Antibody, Alexa Flour 488 (Invitrogen; A11055) for 4 hours. Finally, sections were incubated with 0.1 ug/mL of DAPI for 10 minutes before being mounted with Fluoro-Gel (Electron Microscopy Sciences; 17985-31). Images were taken with the Nikon Eclipse Ti fluorescent microscope.

pSMAD1/5 = assay: as above
Description: as §1, §2, §3

[2] = system: Matrix Metalloproteinase-13 (MMP13); assay: as above
Description: as §1, §2, §3

pSMAD2/3 = assay: as above
Description: as §1, §2, §3

[3] = system: osteophytes in the DMM joint; assay: Micro-CT total knee osteophyte volume in DMM mice
Description: as §1, §2
Dissected knee joints underwent Micro-CT analysis using the Skyscan 1172 in vivo μCT scanner (Bruker micro-CT, Kontich, Belgium) at 55 kV and 181 μA, with a resolution of 10 μm. […] Average osteophyte volume was analyzed with Prism 9 Software (GraphPad) using two-way ANOVA and Tukey's multiple comparisons test post-hoc. […]

[4] = treated 1 month after DMM surgery
[5] = treatment immediately after DMM surgery, week 8, listed as BMP-KI
[6] = delayed administration (1 month after DMM surgery)
[7] = treatment immediately after DMM surgery, week 8

COc1cc(-c2cc(-c3ccc(N4CCNCC4)cc3)cnc2C)cc(OC)c1OC [LDN-214117]
total volume of the subchondral plates (subchondral bone plate; week 8, microCT): no significant impact | thickness (thickening) of the subchondral bone plate (subchondral bone plate; week 8, listed as BMP-KI): no significant impact; also recorded: no observed effect | pain (Von Frey 50% paw withdrawal threshold) ([1]; week 6 after surgery, vs DMM control): did not exhibit an increase in pain | pain (Von Frey) compared to mice that had received sham surgery ([1]; week 8): no significant difference | COL10 levels (percentage of cells expressing) (Collagen-X (COL10); [4]): significantly decreased | COL10 levels (percent of cells expressing) (Collagen-X (COL10); [5]): significantly decreases levels of expression; also recorded: visibly reduced | percentage of cells positive for pSMAD1/5 (pSMAD1/5; [6]): reduced | pSMAD1/5 expression in articular cartilage (pSMAD1/5; [7]): reduced to normal levels | MMP13 levels (percentage of cells expressing) [2, 4]: attenuated to those of healthy sham control AC | MMP13 levels (percent of cells expressing) [2, 5]: significantly decreases levels of expression; also recorded: visibly reduced | percent cells positive for pSMAD2/3 (pSMAD2/3; [6]): not rescued | pSMAD2/3 expression in articular cartilage (pSMAD2/3; [7]): not restored to normal levels | osteophyte volume (MicroCT) ([3]; applied after a 1-month delay): significant reduction in osteophyte volume | osteophyte volume (MicroCT) ([3]; treated immediately after surgery, compared to vehicle, week 8): reduced osteophyte volume
